Columns and labels:
Conditions in all cases: incubation time: 72 h
[1] = tested on: HCC1599; assay: normalised response (% of control), CellTiter-Glo; higher = more viable cells (100 = DMSO, 0 = benzethonium chloride kill control)
Procedure: (§1)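 DSRT, 72 h incubation, CellTox Green / CellTiter-Glo readout. Signal is normalised to DMSO and benzethonium chloride controls. Value is the normalised response at dose 3.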

[2] = tested on: HCC1143; assay: as above
Procedure: as §1

[3] = tested on: MDA-MB-436; assay: as above
Procedure: as §1

[4] = tested on: HCC1937; assay: as above
Procedure: as §1

[5] = tested on: MDA-MB-453; assay: as above
Procedure: as §1

[6] = tested on: CAL-85-1; assay: as above
Procedure: as §1

[7] = tested on: HDQ-P1; assay: as above
Procedure: as §1

[8] = tested on: MFM-223; assay: as above
Procedure: as §1

[9] = tested on: CAL-51; assay: as above
Procedure: as §1

[10] = tested on: BT-549; assay: as above
Procedure: as §1

[11] = tested on: DU-4475; assay: as above
Procedure: as §1

[12] = tested on: SK-BR-3; assay: as above
Procedure: as §1

[13] = tested on: MCF-10A; assay: as above
Procedure: as §1

[14] = tested on: Hs578T; assay: as above
Procedure: as §1

[15] = tested on: BT-474; assay: as above
Procedure: as §1

[16] = tested on: CAL-120; assay: as above
Procedure: as §1

[17] = tested on: MDA-MB-468; assay: as above
Procedure: as §1

[18] = tested on: CAL-148; assay: as above
Procedure: as §1

[19] = tested on: MDA-MB-231; assay: as above
Procedure: as §1

[20] = tested on: HCC1599; assay: normalised response (% of control), CellTox Green; higher = less cell death (100 = DMSO, 0 = benzethonium chloride kill control)
Method in brief: (§2)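 Normalised signals at single concentrations make up the values. They come from breast cancer cell lines seeded (20 µl suspension) into 384-well plates with compound at 5 concentrations in 10-fold steps over a compound-specific 10,000-fold range, incubated 72 h, and read for CellTox Green fluorescence then CellTiter-Glo luminescence. Each plate was normalised to 0.1 % DMSO (100) and a positive kill control (0).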

[21] = tested on: HCC1143; assay: as above
Method in brief: as §2

[22] = tested on: MDA-MB-436; assay: as above
Method in brief: as §2

[23] = tested on: HCC1937; assay: as above
Method in brief: as §2

[24] = tested on: MDA-MB-453; assay: as above
Method in brief: as §2

[25] = tested on: CAL-85-1; assay: as above
Method in brief: as §2

[26] = tested on: HDQ-P1; assay: as above
Method in brief: as §2

[27] = tested on: MFM-223; assay: as above
Method in brief: as §2

[28] = tested on: CAL-51; assay: as above
Method in brief: as §2

[29] = tested on: BT-549; assay: as above
Method in brief: as §2

[30] = tested on: DU-4475; assay: as above
Method in brief: as §2

[31] = tested on: MCF-10A; assay: as above
Method in brief: as §2

[32] = tested on: Hs578T; assay: as above
Method in brief: as §2

[33] = tested on: BT-474; assay: as above
Method in brief: as §2

[34] = tested on: CAL-120; assay: as above
Method in brief: as §2

[35] = tested on: MDA-MB-468; assay: as above
Method in brief: as §2

[36] = tested on: CAL-148; assay: as above
Method in brief: as §2

[37] = tested on: MDA-MB-231; assay: as above
Method in brief: as §2

SMILES | normalised response [1] [%] | normalised response [2] [%] | normalised response [3] [%] | normalised response [4] [%] | normalised response [5] [%] | normalised response [6] [%] | normalised response [7] [%] | normalised response [8] [%] | normalised response [9] [%] | normalised response [10] [%] | normalised response [11] [%] | normalised response [12] [%] | normalised response [13] [%] | normalised response [14] [%] | normalised response [15] [%] | normalised response [16] [%] | normalised response [17] [%] | normalised response [18] [%] | normalised response [19] [%] | normalised response [20] [%] | normalised response [21] [%] | normalised response [22] [%] | normalised response [23] [%] | normalised response [24] [%] | normalised response [25] [%] | normalised response [26] [%] | normalised response [27] [%] | normalised response [28] [%] | normalised response [29] [%] | normalised response [30] [%] | normalised response [31] [%] | normalised response [32] [%] | normalised response [33] [%] | normalised response [34] [%] | normalised response [35] [%] | normalised response [36] [%] | normalised response [37] [%]
O=C(O)c1ccc(-c2c[nH]c3ncc(-c4ccccc4)cc23)cc1C1CCCC1 (100 nM) | 89.5 | 102 | 89.5 | 97.1 | 97.6 | 101 | 96.7 | 96.2 | 64.1 | 101 | 98.2 | 97.2 | 93.1 | 103 | 93.8 | 97.9 | 90.6 | 88 | 97.3 | 98.6 | 83.7 | 95.5 | 107 | 95.8 | 108 | 99 | 101 | 84.6 | 83.6 | 95.1 | 97.3 | 89.5 | 99.5 | 95 | 108 | 101 | 89.3
CCC1(c2ccc(N)cc2)CCC(=O)NC1=O (stereo not given) [Aminoglutethimide] (100 nM) | 90.5 | 95.3 | 98.3 | 94.7 | 103 | 107 | 98.5 | 102 | 117 | 108 | 100 | 99.3 | 94.1 | 98.3 | 99.1 | 108 | 100 | 105 | 104 | 104 | 96.9 | 109 | 102 | 103 | 106 | 88.9 | 92.2 | 113 | 98 | 98.3 | 99.1 | 103 | 101 | 98.6 | 119 |  | 98
Cn1c(CCCC(=O)O)nc2cc(N(CCCl)CCCl)ccc21 [Bendamustine] (100 nM) | 99.1 | 111 | 97.6 | 105 | 125 | 97.3 | 102 | 106 | 107 | 106 | 101 | 108 | 108 | 103 | 104 | 103 | 106 | 117 | 104 | 109 | 110 | 91.8 | 88.6 | 105 | 89.6 | 88.7 | 105 | 111 | 101 | 103 | 73.5 | 105 | 102 | 97.4 | 141 | 107 | 102
C=C(c1ccc(C(=O)O)cc1)c1cc2c(cc1C)C(C)(C)CCC2(C)C [Bexarotene] (100 nM) | 90.8 | 104 | 98 | 100 | 117 | 105 | 104 | 108 | 80.1 | 105 | 104 | 88.6 | 91.8 | 95.9 | 109 | 104 | 104 | 101 | 101 | 105 | 97.9 | 94.1 | 105 | 96.1 | 95.8 | 108 | 81.8 | 96.9 | 92.4 | 98.8 | 104 | 98.7 | 97 | 99.7 | 108 | 95.2 | 
C[C@@H](Oc1cc(-c2cnn(C3CCNCC3)c2)cnc1N)c1c(Cl)ccc(F)c1Cl [Crizotinib] (10 nM) | 97.4 | 102 | 99 | 98.2 | 107 | 93.5 | 93.6 | 99.3 | 57.6 | 96.7 | 103 | 97.3 | 101 | 99.9 | 102 | 100 | 92.7 | 100 | 104 | 109 | 89.3 | 65.4 | 90.5 | 105 | 89.3 | 96.1 | 105 | 84.9 | 98.6 | 103 | 80.3 | 105 | 100 | 107 | 230 | 102 | 88.4
C#Cc1cccc(Nc2ncnc3cc(OCCOC)c(OCCOC)cc23)c1 [Erlotinib] (100 nM) | 102 | 102 | 102 | 99 | 109 | 100 | 74 | 103 | 105 | 105 | 105 | 112 | 65 | 100 | 98.3 | 98.1 | 90.8 | 115 | 118 | 104 | 114 | 98.9 | 107 | 106 | 86.2 | 108 | 103 | 111 | 93 | 102 | 85.9 | 75.5 | 101 | 95.6 | 118 | 103 | 
C[C@]12CC[C@@H]3c4ccc(O)cc4C[C@@H](CCCCCCCCC[S+]([O-])CCCC(F)(F)C(F)(F)F)[C@H]3[C@@H]1CC[C@@H]2O (stereo not given in full) [Fulvestrant] (10 nM) | 108 | 105 | 103 | 92.8 | 103 | 97.9 | 96.1 | 104 | 111 | 106 | 101 | 105 | 109 | 102 | 104 | 103 | 108 | 105 | 106 | 105 | 107 | 107 | 121 | 79.4 | 102 | 97.2 |  | 109 | 104 | 103 | 104 | 100 | 99.8 | 101 | 86.1 | 104 | 115
CCC(C)(C)C(=O)O[C@H]1C[C@@H](C)C=C2C=C[C@H](C)[C@H](CC[C@@H]3C[C@@H](O)CC(=O)O3)[C@H]21 [Simvastatin] (100 nM) | 89.2 | 105 | 99.7 | 99 | 95.5 | 98.9 | 102 | 105 | 104 | 94.5 | 98.4 | 105 | 111 | 102 | 97.5 | 100 | 93.7 | 107 | 98.6 | 95.1 | 91 |  | 68.8 | 77.8 |  | 78.8 | 102 | 113 | 59.3 | 105 | 107 | 75.5 | 97.3 |  | 94.2 | 99.7 | 115
O=C(CCCCCCC(=O)Nc1ccc([C@H]2O[C@@H](CSc3nc(-c4ccccc4)c(-c4ccccc4)o3)C[C@@H](c3ccc(CO)cc3)O2)cc1)NO [Tubacin] (100 nM) | 85.2 | 96 | 96.8 | 92.8 | 96.1 | 97.2 | 88.2 | 97 | 89.2 | 96.7 | 102 | 97.1 | 106 | 94.6 | 94.8 | 112 | 95.3 | 106 | 97 | 102 | 99 |  | 83.3 | 99.4 | 99.6 | 87.9 | 103 | 101 | 102 | 100 | 104 | 98.1 | 102 | 105 | 82.4 | 98.1 | 110
